From patent US12459932B2, “KIF18A inhibitors” (AMGEN INC., priority 2018, dated 2025) come the findings set out here.

Counter-ions that a name gives are not always drawn.

T1 sequence (Q8NI77 1-467): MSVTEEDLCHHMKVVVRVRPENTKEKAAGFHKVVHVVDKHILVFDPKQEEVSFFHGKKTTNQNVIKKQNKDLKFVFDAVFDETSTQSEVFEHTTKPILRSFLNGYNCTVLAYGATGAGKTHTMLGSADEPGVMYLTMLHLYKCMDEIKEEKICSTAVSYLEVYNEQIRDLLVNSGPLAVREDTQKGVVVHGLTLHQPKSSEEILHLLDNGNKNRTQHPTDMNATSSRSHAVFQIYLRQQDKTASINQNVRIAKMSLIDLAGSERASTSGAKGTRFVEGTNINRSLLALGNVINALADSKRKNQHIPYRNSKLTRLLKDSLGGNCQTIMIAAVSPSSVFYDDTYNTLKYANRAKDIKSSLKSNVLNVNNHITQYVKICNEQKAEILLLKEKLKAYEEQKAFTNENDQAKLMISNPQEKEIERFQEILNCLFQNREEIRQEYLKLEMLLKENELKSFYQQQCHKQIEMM
T1 sequence (P02550 whole entry partner): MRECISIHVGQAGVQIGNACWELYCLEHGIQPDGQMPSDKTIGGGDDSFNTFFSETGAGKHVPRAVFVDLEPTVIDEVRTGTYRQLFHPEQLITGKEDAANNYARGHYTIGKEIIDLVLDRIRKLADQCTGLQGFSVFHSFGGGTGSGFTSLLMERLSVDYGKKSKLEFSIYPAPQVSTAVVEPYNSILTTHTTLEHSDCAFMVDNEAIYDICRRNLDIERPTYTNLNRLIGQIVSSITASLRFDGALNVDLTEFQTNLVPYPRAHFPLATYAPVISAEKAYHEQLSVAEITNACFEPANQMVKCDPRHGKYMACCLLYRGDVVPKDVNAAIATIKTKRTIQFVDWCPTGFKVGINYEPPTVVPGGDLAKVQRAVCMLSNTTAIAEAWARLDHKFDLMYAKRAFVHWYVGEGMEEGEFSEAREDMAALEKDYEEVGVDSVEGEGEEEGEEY
T1 sequence (P02554 whole entry partner): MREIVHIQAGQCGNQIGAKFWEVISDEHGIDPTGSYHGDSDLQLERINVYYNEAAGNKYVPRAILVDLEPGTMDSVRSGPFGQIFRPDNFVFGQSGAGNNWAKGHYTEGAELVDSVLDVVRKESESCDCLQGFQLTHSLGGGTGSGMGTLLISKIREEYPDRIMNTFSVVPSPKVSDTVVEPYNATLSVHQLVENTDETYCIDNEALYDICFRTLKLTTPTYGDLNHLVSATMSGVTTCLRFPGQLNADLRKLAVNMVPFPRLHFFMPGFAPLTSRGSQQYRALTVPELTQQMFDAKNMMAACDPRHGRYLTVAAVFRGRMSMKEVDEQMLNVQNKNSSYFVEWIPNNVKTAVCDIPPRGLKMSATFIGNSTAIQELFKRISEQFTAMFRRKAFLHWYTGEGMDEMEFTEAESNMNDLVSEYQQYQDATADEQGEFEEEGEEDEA

The assay has as its target T1, Recombinant human KIF18A (1-467 His-tagged) (Homo sapiens, UniProt Q8NI77).
T1 construct: Recombinant human KIF18A (1-467 His-tagged) protein; His
Nature of the assay: KIF18A Enzyme Assay: microtubule-stimulated ATPase activity (ADP-Glo). As to conditions: 30 nM KIF18A, 30 μg/mL pig microtubules, ATP 75 μM (Km), ADP-Glo luminescence. In kind it is biochemical. The protocol:
KIF18A Enzyme Assay: Microtubule-stimulated ATPase activity assay is used to measure KIF18A enzyme activity after treatment with compound. Compounds were 2-fold serially diluted in DMSO (Sigma Inc) over 22-point concentration range. […] The assay measures ADP formed from the ATPase reaction. […] Read luminescence using EnVision microplate reader with ultra-luminescence module (Perkin Elmer Inc). Concentration-response curve-fitting and IC50 determination was performed using Genedata Screener Software (Standard 15.0.1, Genedata Inc) with a four-parameter logistic regression fit model.
In the case of `CC1(S(=O)(=O)Nc2ccc(C(=O)Nc3cccc(N4CCO[C@H](CO)C4)n3)c(N3CCC4(CC3)CC4)c2)CC1` [Example 3-12, (S)-N-(6-(2-(Hydroxymethyl)morpholino)pyridin-2-yl)-4-((1-methylcyclopropane)-1-sulfonamido)-2-(6-azaspiro[2.5]octan-6-yl)benzamide], the IC50 was found to be 81 nM. On to `C[C@H](CO)S(=O)(=O)Nc1ccc(C(=O)Nc2cccc(N3CCC(F)(F)CC3)n2)c(N2CCC3(CC2)CC3)c1` (single isomer, unassigned) [Example 9-10], for which the IC50 came to 37 nM.

For the compound `CS(=O)(=O)c1ccc(C(=O)Nc2cccc(C3CC3)n2)c(N2CCC3(CC2)CC3)c1` [Example 4-4, N-(6-Cyclopropylpyridin-2-yl)-4-(methylsulfonyl)-2-(6-azaspiro[2.5]octan-6-yl)benzamide], the IC50 is 180 nM. Under `C[C@@H]1CN(c2cccc(NC(=O)c3ccc(S(C)(=O)=O)cc3N3CCC4(CC3)CC4)n2)CCO1` [Example 4-13, (R)-N-(6-(2-Methylmorpholino)pyridin-2-yl)-4-(methylsulfonyl)-2-(6-azaspiro[2.5]octan-6-yl)benzamide] stands 69 nM; under `Cc1cc(NC(=O)c2ccc(NS(=O)(=O)CF)cc2N2CCC3(CC2)CC3)nc(N2CCO[C@H](C)C2)c1` [Example 7-36, (R)-4-((Fluoromethyl)sulfonamido)-N-(4-methyl-6-(2-methylmorpholino)pyridin-2-yl)-2-(6-azaspiro[2.5]octan-6-yl)benzamide], 62 nM. As for `Cc1cc(NC(=O)c2ccc(NS(=O)(=O)CCO)cc2N2CCC3(CC2)CC3)nc(N2CCO[C@H](C)C2)c1` [Example 7-18, (R)-4-((2-Hydroxyethyl)sulfonamido)-N-(4-methyl-6-(2-methylmorpholino)pyridin-2-yl)-2-(6-azaspiro[2.5]octan-6-yl)benzamide], the figure is 74 nM. As for `C[C@@H](CO)S(=O)(=O)Nc1ccc(C(=O)Nc2cccc(OCCC(F)(F)F)n2)c(N2CCC3(CC2)CC3)c1` (single isomer, unassigned) [Example 8-2], the figure is 14 nM; as for `Cc1cc(NC(=O)c2ccc(NS(=O)(=O)C3(CO)CC3)cc2N2CCC3(CC2)CC3)nc(N2CC(F)(F)C2)c1` [Example 10-2, N-(6-(3,3-Difluoroazetidin-1-yl)-4-methylpyridin-2-yl)-4-((1-(hydroxymethyl)cyclopropane)-1-sulfonamido)-2-(6-azaspiro[2.5]octan-6-yl)benzamide], 76 nM. In the case of `CC1(F)CCN(c2cccc(NC(=O)c3ccc(NS(=O)(=O)C4(C)CC4)cc3N3CCC4(CC3)CC4)n2)CC1` [Example 3-13, N-(6-(4-Fluoro-4-methylpiperidin-1-yl)pyridin-2-yl)-4-((1-methylcyclopropane)-1-sulfonamido)-2-(6-azaspiro[2.5]octan-6-yl)benzamide], the IC50 is 373 nM. Under `C[C@@H]1CN(c2cccc(NC(=O)c3ccc(S(=O)(=O)N4CC(C)(C#N)C4)cc3N3CCC4(CC3)CC4)n2)CCO1` [Example 1-12, (R)-4-((3-Cyano-3-methylazetidin-1-yl)sulfonyl)-N-(6-(2-methylmorpholino)pyridin-2-yl)-2-(6-azaspiro[2.5]octan-6-yl)benzamide] stands 458 nM; under `C[C@@H]1CN(c2cccc(NC(=O)c3ccc(NS(=O)(=O)C4COC4)cc3N3CCC4(CC3)CC4)n2)CCO1` [Example 7-10, (R)-N-(6-(2-Methylmorpholino)pyridin-2-yl)-4-(oxetane-3-sulfonamido)-2-(6-azaspiro[2.5]octan-6-yl)benzamide], 63 nM. Under `C[C@@H]1CN(c2cccc(NC(=O)c3ccc(S(=O)(=O)NCCO)cc3N3CCC4(CC3)CC4)n2)CCO1` [Example 1-1, (R)-4-(N-(2-Hydroxyethyl)sulfamoyl)-N-(6-(2-methylmorpholino)pyridin-2-yl)-2-(6-azaspiro[2.5]octan-6-yl)benzamide] stands 16 nM; under `Cc1cc(NC(=O)c2ccc(NS(=O)(=O)C3(C)CC3)cc2N2CCC3(CC2)CC3)nc(N2CCC(F)(F)CC2)c1` [Example 4-10, N-(6-(4,4-Difluoropiperidin-1-yl)-4-methylpyridin-2-yl)-4-((1-methylcyclopropane)-1-sulfonamido)-2-(6-azaspiro[2.5]octan-6-yl)benzamide], 95 nM; under `C[C@@H]1CN(c2cccc(NC(=O)c3ccc(NS(=O)(=O)CC(C)(C)O)cc3N3CCC4(CC3)CC4)n2)CCO1` [Example 7-42, (R)-4-((2-Hydroxy-2-methylpropyl)sulfonamido)-N-(6-(2-methylmorpholino)pyridin-2-yl)-2-(6-azaspiro[2.5]octan-6-yl)benzamide], 111 nM. Under `CC(C)(O)CCOc1cccc(NC(=O)c2ccc(NS(=O)(=O)CCO)cc2N2CCC3(CC2)CC3)n1` [Example 16-5, N-(6-(3-Hydroxy-3-methylbutoxy)pyridin-2-yl)-4-((2-hydroxyethyl)sulfonamido)-2-(6-azaspiro[2.5]octan-6-yl)benzamide] stands 84 nM; under `C[C@@H]1CN(c2cccc(NC(=O)c3ccc(S(=O)(=O)NC4(C)COC4)cc3N3CCC4(CC3)CC4)n2)CCO1` [Example 4-11, (R)-N-(6-(2-Methylmorpholino)pyridin-2-yl)-4-(N-(3-methyloxetan-3-yl)sulfamoyl)-2-(6-azaspiro[2.5]octan-6-yl)benzamide], 43 nM; under `O=C(Nc1cccc(N2CCOCC2)n1)c1ccc(NS(=O)(=O)CCO)cc1N1CCC2(CC1)CC2` [Example 7-20, 4-((2-Hydroxyethyl)sulfonamido)-N-(6-morpholinopyridin-2-yl)-2-(6-azaspiro[2.5]octan-6-yl)benzamide], 36 nM. Regarding `O=C(Nc1cccc(OCCC(F)(F)F)n1)c1ccc(S(=O)(=O)C2CNC2)cc1N1CCC2(CC1)CC2` [Example 31, 4-(Azetidin-3-ylsulfonyl)-2-(6-azaspiro[2.5]octan-6-yl)-N-(6-(3,3,3-trifluoropropoxy)pyridin-2-yl)benzamide trifluoroacetate], the IC50 was determined as 55 nM. As for `C[C@@H]1CN(c2cccc(NC(=O)c3ccc([S@](=N)(=O)C(C)(C)C)cc3N3CCC4(CC3)CC4)n2)CCO1` (single isomer, unassigned) [Example 13-1], the figure is 199 nM. As for `C[C@@H](CO)S(=O)(=O)Nc1ccc(C(=O)Nc2cccc(N3CC(F)(F)C3)n2)c(N2CCC3(CC2)CC3)c1` (single isomer, unassigned) [Example 9-4], the IC50 was found to be 68 nM. Consider `CC(C)S(=O)(=O)c1ccc(C(=O)Nc2cccc(N3CCO[C@H](C)C3)n2)c(N2CCC3(CC2)CC3)c1` [Example 2, (R)-4-(Isopropylsulfonyl)-N-(6-(2-methylmorpholino)pyridin-2-yl)-2-(6-azaspiro[2.5]octan-6-yl)benzamide], for which the IC50 amounted to 34 nM. As for `CC1(S(=O)(=O)Nc2ccc(C(=O)Nc3cccc(N4CCC[C@H](CO)C4)n3)c(N3CCC4(CC3)CC4)c2)CC1` [Example 3-7, (S)-N-(6-(3-(Hydroxymethyl)piperidin-1-yl)pyridin-2-yl)-4-((1-methylcyclopropane)-1-sulfonamido)-2-(6-azaspiro[2.5]octan-6-yl)benzamide], the figure is 65 nM; as for `Cc1cc(NC(=O)c2ccc(NS(=O)(=O)[C@H](C)CO)cc2N2CCC3(CC2)CC3)nc(N2CCO[C@H](C)C2)c1` (single isomer, unassigned) [Example 9-11], 38 nM; as for `CC1(S(=O)(=O)Nc2ccc(C(=O)Nc3cccc(N4CCC[C@](C)(O)C4)n3)c(N3CCC4(CC3)CC4)c2)CC1` [Example 3-9, (S)-N-(6-(3-Hydroxy-3-methylpiperidin-1-yl)pyridin-2-yl)-4-((1-methylcyclopropane)-1-sulfonamido)-2-(6-azaspiro[2.5]octan-6-yl)benzamide], 175 nM.

Take `O=C(Nc1cccc(OCCC(F)F)n1)c1ccc(NS(=O)(=O)CCO)cc1N1CCC2(CC1)CC2` [Example 16-9, N-(6-(3,3-Difluoropropoxy)pyridin-2-yl)-4-((2-hydroxyethyl)sulfonamido)-2-(6-azaspiro[2.5]octan-6-yl)benzamide]: the IC50 was 51 nM. As for `Cc1cc(NC(=O)c2ccc(NS(=O)(=O)CCO)cc2N2CCC3(CC2)CC3)nc(N2CCOCC2)c1` [Example 7-17, 4-((2-Hydroxyethyl)sulfonamido)-N-(4-methyl-6-morpholinopyridin-2-yl)-2-(6-azaspiro[2.5]octan-6-yl)benzamide], the figure is 17 nM; as for `O=C(Nc1cccc(N2CCC(F)(F)CC2)n1)c1ccc(NS(=O)(=O)CCO)cc1N1CCC2(CC1)CC2` [Example 7-26, N-(6-(4,4-Difluoropiperidin-1-yl)pyridin-2-yl)-4-((2-hydroxyethyl)sulfonamido)-2-(6-azaspiro[2.5]octan-6-yl)benzamide], 23 nM. As for `CC1(O)CCN(c2cccc(NC(=O)c3ccc(NS(=O)(=O)C4(C)CC4)cc3N3CCC4(CC3)CC4)n2)CC1` [Example 3-8, N-(6-(4-Hydroxy-4-methylpiperidin-1-yl)pyridin-2-yl)-4-((1-methylcyclopropane)-1-sulfonamido)-2-(6-azaspiro[2.5]octan-6-yl)benzamide], the figure is 243 nM.

Turning to `CC1(S(=O)(=O)Nc2ccc(C(=O)Nc3cccc(N4CCC[C@@H](O)C4)n3)c(N3CCC4(CC3)CC4)c2)CC1` [Example 3, (R)-N-(6-(3-Hydroxypiperidin-1-yl)pyridin-2-yl)-4-((1-methylcyclopropane)-1-sulfonamido)-2-(6-azaspiro[2.5]octan-6-yl)benzamide], the IC50 is 46 nM. As for `CC1(S(=O)(=O)Nc2ccc(C(=O)Nc3cccc(N4CCCC(C#N)C4)n3)c(N3CCC4(CC3)CC4)c2)CC1` (stereo not drawn) [Example 3-22, N-(6-(3-Cyanopiperidin-1-yl)pyridin-2-yl)-4-((1-methylcyclopropane)-1-sulfonamido)-2-(6-azaspiro[2.5]octan-6-yl)benzamide], the figure is 86 nM.
